Measurements as given in US20120202288A1, “COMPOSITIONS COMPRISING CYCLIC AMP ENHANCERS AND/OR EP LIGANDS, AND METHODS OF PREPARING AND USING THE SAME” (FATE THERAPEUTICS, INC., priority 2009, published 2012).
Read-outs that look alike come from different tables or passages of the source. One block for each molecule: values may come before it.

How the values were obtained:
[1] = Stability of 16,16-dimethyl PGE2 formulation, storage at −80° C.; type: physicochemical; details: for Assay (% LC): 10 mM in DMSO, 2 ml glass vial; for Purity (%): stability
Procedure: (§1) 16,16-dimethyl PGE2 and its related substances were separated on a Phenomenex, Synergi Hydro RP 4μ HPLC column with gradient elution conditions and detected at 205 nm. The assay of 16,16-dimethyl PGE2 was determined by comparing the 16,16-dimethyl PGE2 peak area of the test samples with that of a reference standard of known concentration and purity. The levels of the impurities and degradation products were determined from the peak area ratio of each individual impurity to the total peak area of the 16,16-dimethyl PGE2 and all impurities and degradation products. The identify of 16,16-dimethyl PGE2 was confirmed by comparing the retention time of the main peak of the test sample against that in the reference standard.
(§2) Stability tests were performed on formulations of 16,16-dimethyl PGE2 stored at either −80° C. or −20° C. for up to six months. These clinical formulations were composed of 10 mM 16,16-dimethyl PGE2 in […] DMSO, and were stored in a 2 ml Type I clear glass vial with a 13 mm West 4432/50 Teflon coated stopper. The results are shown in Tables 3 (−80° C.) and 4 (−20° C.) below.

[2] = Stability of 16,16-dimethyl PGE2 formulation, storage at −20° C.; type: physicochemical; details: for Assay (% LC): 10 mM in DMSO, 2 ml glass vial; for Purity (%): stability
Procedure: as §1, §2

[3] = tested on: hematopoietic stem cells (HSCs); experiment: Ex vivo treatment of HSCs prior to transplant, engraftment of donor HSCs; type: in vivo; details: bone marrow cells incubated with 10 μM at 4° C. for one hour, then transplanted into allogeneic subject
Procedure: Bone marrow cells containing HSCs are obtained directly by removal from the hip of a donor subject using a needle and syringe. The heterogeneous mixture of bone marrow cells is transferred to two separate tissue culture flasks, and a suitable growth medium is provided.
262 μl of a 10 mM solution of 16,16-dimethyl PGE2 in DMSO is added to the cells in the first tissue culture flask, to a final working concentration of 10 μM of 16,16-dimethyl PGE2. The same amount of DMSO without agent is added to the second flask as a control, and the cells in both flasks are incubated at 4° C. (e.g., in an ice bath) for one hour. The 16,16-dimethyl PGE2 is at least 90% pure as measured by HPLC, and is produced by good manufacturing practice (GMP).
After incubation of the HSCs in the ice bath, the cells from each flask are administered to separate, but otherwise genetically identical subjects. These subjects are both allogeneic to the donor cells. The subjects are then observed for engraftment of the donor HSCs, using markers that are specific for the donor cells.

[4] = tested on: human umbilical cord-derived CD34+ cells; details: apoptosis induced by nitric oxide (NO) or serum deprivation; cited from earlier work
[5] = cited from earlier work
hepatic stellate cells = details: cited from earlier work
dendritic cell (DC) = details: ex vivo or in vitro; withdrawal of growth factors or ceramide; cited from earlier work
[6] = tested on: murine embryonic stem cell; details: cited from earlier work
transplanted stem cells = details: injection shortly after marrow cell graft; cited from earlier work

- Assay (% LC) ([1]; 1 Month): 98.5 % LC
- Assay (% LC) ([1]; 2 Months): 97.7 % LC
- Assay (% LC) ([1]; 3 Months): 98.5 % LC
- Assay (% LC) ([1]; 6 Months): 98.6 % LC
- Assay (% LC) ([1]; Time Zero): 98.1 % LC
- Product Appearance ([1]; 1 Month): conforms
- Total Related Substances (%) ([1]; 1 Month): 5.33%
- pH ([1]; 1 Month): 4.8
- Product Appearance ([1]; 2 Months): conforms
- Total Related Substances (%) ([1]; 2 Months): 5.51%
- pH ([1]; 2 Months): 4.7
- Product Appearance ([1]; 3 Months): conforms
- Total Related Substances (%) ([1]; 3 Months): 5.35%
- pH ([1]; 3 Months): 4.8
- Product Appearance ([1]; 6 Months): conforms
- Total Related Substances (%) ([1]; 6 Months): 5.51%
- pH ([1]; 6 Months): 4.7
- Product Appearance ([1]; Time Zero): conforms
- Total Related Substances (%) ([1]; Time Zero): 5.52%
- pH ([1]; Time Zero): 4.5
- Purity (%) ([1]; 1 Month): 94.7%
- Purity (%) ([1]; 2 Months): 94.5%
- Purity (%) ([1]; 3 Months): 94.7%
- Purity (%) ([1]; 6 Months): 94.5%
- Purity (%) ([1]; Time Zero): 94.5%
- Assay (% LC) ([2]; 1 Month): 98.7 % LC
- Assay (% LC) ([2]; 2 Months): 97.4 % LC
- Assay (% LC) ([2]; 3 Months): 98.8 % LC
- Assay (% LC) ([2]; 6 Months): 97.5 % LC
- Assay (% LC) ([2]; Time Zero): 98.1 % LC
- Product Appearance ([2]; 1 Month): conforms
- Total Related Substances (%) ([2]; 1 Month): 5.22%
- pH ([2]; 1 Month): 4.8
- Product Appearance ([2]; 2 Months): conforms
- Total Related Substances (%) ([2]; 2 Months): 5.52%
- pH ([2]; 2 Months): 4.7
- Product Appearance ([2]; 3 Months): conforms
- Total Related Substances (%) ([2]; 3 Months): 5.54%
- pH ([2]; 3 Months): 4.6
- Product Appearance ([2]; 6 Months): conforms
- Total Related Substances (%) ([2]; 6 Months): 5.95%
- pH ([2]; 6 Months): 4.6
- Product Appearance ([2]; Time Zero): conforms
- Total Related Substances (%) ([2]; Time Zero): 5.52%
- pH ([2]; Time Zero): 4.5
- Purity (%) ([2]; 1 Month): 94.8%
- Purity (%) ([2]; 2 Months): 94.5%
- Purity (%) ([2]; 3 Months): 94.5%
- Purity (%) ([2]; 6 Months): 94.0%
- Purity (%) ([2]; Time Zero): 94.5%
SMILES: CCCCC(C)(C)[C@H](O)/C=C/[C@H]1[C@H](O)CC(=O)[C@@H]1C/C=C\CCCC(=O)O [16,16-dimethyl PGE2]
- number of engrafted HSC donor cells versus control-treated cells [3]: significantly greater number of engrafted HSC donor cells

SMILES: O[C@@H]1[C@@H]2OP(O)(=S)OC[C@H]2O[C@H]1n1cnc2cc(Cl)c(Cl)cc21 (stereo partly drawn) [BIMPS, sp-5,6-DCl-BIMPS]
- survival of CD34+ cells [4]: promote survival

SMILES: CCCCC[C@@H](/C=C/[C@H]1[C@H](OC)CC(=O)[C@@H]1C/C=C\CCCC(=O)O)OC [ONO-AE-248]
- effect on core temperature (Tc) ([5]; 20 nmol): increased the Tc

SMILES: CCCC[C@H](C)C[C@H](O)/C=C/[C@H]1[C@H](O)CC(=O)[C@@H]1CC(=O)C1CCC(C(=O)O)CC1 (stereo partly drawn) [ONO-DI-004]
- effect on core temperature (Tc) ([5]; in vivo): increase the core temperature (Tc) in a dose-dependent manner

SMILES: CCCCC[C@H](O)/C=C/[C@H]1[C@H](O)CC(=O)[C@@H]1C/C=C\CCCC(=O)O [PGE2, Prostaglandin E2]
- mitogenesis of hepatic stellate cells (hepatic stellate cells): inhibits the mitogenesis
- protection of DC against apoptosis (dendritic cell (DC)): protects DC
- amplification of multipotent progenitors [6]: cause amplification of multipotent progenitors

SMILES: CCCC(=O)Nc1ncnc2c1ncn2[C@@H]1O[C@@H]2COP(=O)(O)O[C@H]2[C@H]1OC(=O)CCC [dibutyryl-cAMP, dibutyryl cyclic adenosine 3′,5′-monophosphate]
- survival of CD34+ cells [4]: promote survival
- entry of transplanted stem cells into S phase (transplanted stem cells): triggers the transplanted stem cells into entering S phase

SMILES: CC(C)NCC(O)c1ccc(O)c(O)c1 (stereo not drawn) [isoproterenol]
- entry of transplanted stem cells into S phase (transplanted stem cells): triggers the transplanted stem cells into entering S phase
